Assay [1] relates to HL-60 (promyelocytic leukemia). The assay can be described thus: Calcein AM cytotoxicity assay, HL60. The class given is cell-based, human. Particulars: 72 hours incubation. The method in brief: (§1)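 Esterase-based viability assay: living cells hydrolyse Calcein AM to fluorescent calcein. Compound exposure lasts 72 h at 37 °C, 5% CO2, 100% humidity, top concentration 166.7 μM. The GI50 is the concentration reducing esterase activity by 50%.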

Assay [2] deals with HOS (human osteogenic sarcoma). The assay can be described thus: Calcein AM cytotoxicity assay, HOS. It is filed as cell-based. Particulars: 72 hours incubation. The method, boiled down: as §1
Assay [3] relates to Normal human fibroblasts BJ. The assay can be described thus: Calcein AM cytotoxicity assay, BJ. The class given is cell-based. Particulars: 72 hours incubation. The method in brief:
as §1

For assay [4], the system named is K-562 (human erythroleukemia). The assay can be described thus: Calcein AM cytotoxicity assay, K-562. It is filed as cell-based. Particulars: 72 hours incubation. The method, boiled down:
as §1

Assay [5] relates to G-361 (human malignant melanoma). In words: Calcein AM cytotoxicity assay, G-361. It is filed as cell-based. Particulars: 72 hours incubation. The text has this:
Because toxic compounds negatively influence metabolic processes in cells, many standard cytotoxicity assays are based on measurement of metabolisation rate of various artificial substrates. Resulting product is then quantified e.g. by means of spectrometry. The assays can be easily modified for use in 96-well plates. For evaluation of cytotoxic effect of the novel substituted 9-substituted cytokinin derivatives of this invention, a microtiter assay based on quantification of metabolisation of Calcein AM was used. The assay is widely used in drug screening programs and in chemosensitivity testing. In the living cells, Calcein AM is enzymatically hydrolysed and accumulation of resulting calcein is manifested by green fluorescence.
In the routine screening the following cell lines have been used: CEM (T-lymphoblastoid leukemia), HL-60 (promyelocytic leukemia), K-562 (human erythroleukemia), MCF-7 (breast carcinoma), HOS (human osteogenic sarcoma), and G-361 (human malignant melanoma). Normal human fibroblasts BJ were used as a control for routine screening of the compounds. The cells were kept in Nunc/Corning 80 cm^2 plastic bottles and grown in cell culture medium (DMEM containing 5 g/l glucose, 2 mM glutamine, 100 U/ml penicilline, 100 μg/ml streptomycine, 10% fetal bovine serum and sodium hydrogencarbonate), the compounds were prepared according to the procedure of the present invention.
The cell suspensions were prepared and diluted according to the particular cell type and the expected target cell density (2.500-30.000 cells per well based on cell growth characteristics) and pippetted (80 μl) into 96-well plates. Inoculates were allowed a pre-incubation period of 24 hours at 37° C. and 5% CO2 for stabilisation. Tested compound was added in total volume of 20 μl of water at time zero. Usually, test compound was evaluated at six 3-fold dilutions. In routine testing, the highest concentration tested was 166.7 μM. All drug concentrations were tested in triplicates. Incubations of cells with the test compounds lasted for 72 hours at 37° C., in 5% CO2 atmosphere and 100% humidity. At the end of incubation period Calcein AM in PBS was added into final concentration of 1 μg/ml. After another 1 hour of incubation fluorescence (FD) was measured with the Labsystem FIA Reader Fluoroscan Ascent (Microsystems). Tumor cell survival (TCS) was estimated using the following equation: […]=(FDdrug exposed well/FDcontrol well)×100%. The GI50 value, the drug concentration causing 50% reduction of esterase activity, was calculated from the obtained dose response curves (FIG. 1).
Cytoxicity of novel compounds was tested on panel of cell lines of different histogenetic and species origin (Table 3). […] The effective novel derivatives killed tumour cells in concentrations close to 0.1-50 μM.

Assay [6] has as its system Human lymphocytes. In words: Immunosuppressive activity, 3H-thymidine incorporation in concanavalin A activated lymphocytes. The class given is cell-based. Particulars: 72 hours, [3H]-TdR incorporation, read-out: Human lymphocytes ED50. The method in brief: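 Ficoll-separated peripheral blood mononuclear cells from healthy donors, stimulated with concanavalin A and exposed to six 4-fold compound dilutions (top 266.7 μM) for 72 h at 37 °C. Proliferation read by 6 h [3H]-thymidine pulse and scintillation counting; ED50 taken from dose-response curves versus control wells.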

Molecules are shown by their SMILES.

Consider `O=P(O)(O)OC[C@H]1O[C@@H](n2cnc3c(NCc4ccccc4O)ncnc32)[C@H](O)[C@@H]1O` [Compound 21, 6-(2-hydroxybenzylamino)purine riboside-5′-monophosphate], for which the GI50 in assay [1] is 0.48 µM; in assay [2] it was 2.5 µM; in assay [3], 43.2 µM; in assay [4], 4 µM; in assay [5] it was 13.5 µM. In assay [6], the EC50 is 6.7 µM.

Source of the values: patent US9073961B2, “Substitution derivatives of N6 -benzyladenosine-5′-monophosphate, methods of preparation thereof, use thereof as medicaments, and therapeutic preparations containing these compounds” (UNIVERZITA PALACKEHO V OLOMOUCI, priority 2010, dated 2015).
